In paper PMC10376420, “Antioxidant, Antidiabetic, and Anti-Obesity Properties of Apple Pulp Extracts (Malus domestica Bork): A Comparative Study of 15 Local and Commercial Cultivars from Spain” (Biology, 2023):
Values after ≈ are worked out from the molar mass of the structure shown.

Target: T1, α-glucosidase from Saccharomyces cerevisiae
T1 construct: gene MAL12
Test: pNPG hydrolysis, absorbance […] nm
Format: biochemical
Details: substrate pNPG (50 uL of 3 mM in 200 uL), 37 °C

For O=c1c(O)c(-c2ccc(O)c(O)c2)oc2cc(O)cc(O)c12 [Quercetin], the IC50 was 2.98 ± 0.40 µg/mL (≈ 9.86 µM).
